According to PubChem BioAssay (NCI):
Where “and” joins values, the source holds several entries; their conditions need not be identical. Equal values may be shown once.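 Values below derive from 48-hour exposures of cells grown in 96-well plates, with endpoints linearly interpolated between the two concentrations bracketing the appropriate inhibition level. At the GI50, growth is halved. TGI is the concentration that stops growth completely.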

Legend:
Test in all cases: NCI tumour cell line growth inhibition, 48 h
M19-MEL melanoma = test system: M19-MEL melanoma
LXFL 529 NSCLC = test system: LXFL 529 NSCLC
HOP-18 NSCLC = test system: HOP-18 NSCLC
KM20L2 colon = test system: KM20L2 colon
XF 498 CNS = test system: XF 498 CNS
SNB-78 CNS = test system: SNB-78 CNS
DMS 273 small cell lung = test system: DMS 273 small cell lung
RXF-631 renal = test system: RXF-631 renal
MDA-N = test system: MDA-N
P388/ADR leukemia = test system: P388/ADR leukemia
SN12K1 renal = test system: SN12K1 renal
P388 leukemia = test system: P388 leukemia

Row | SMILES | TGI (M19-MEL melanoma) | TGI (LXFL 529 NSCLC) [µM] | TGI (HOP-18 NSCLC) [µM] | TGI (KM20L2 colon) [µM] | TGI (XF 498 CNS) [µM] | TGI (SNB-78 CNS) [µM] | TGI (DMS 273 small cell lung) | TGI (RXF-631 renal) [µM] | TGI (MDA-N) | also measured
1 | O=C(N/C(=C\c1c(O)ccc2ccccc12)c1nc2ccccc2[nH]1)c1ccccc1 | > 100 µM | > 100 | > 100 | > 100 | > 100 | > 100 | > 100 µM | > 100 | – | –
2 | O=C(Nc1cc(Cl)ccc1Cl)c1cc2cccc(Br)c2oc1=O | > 100 µM | – | > 100 | > 100 | 72.6 | – | > 100 µM | – | – | –
3 | O=c1nc(NC(c2ccccc2)(c2ccccc2)c2ccccc2)ccn1CCCl | 40.5 µM | 26.4 | 72.1 | 33 | 27.1 | 86.7 | – | 97.4 | – | –
4 | CSC(=Nc1ccccc1Cl)NC(=O)c1ccc(Br)cc1 | > 100 µM | > 100 | 94.1 | > 100 | > 100 | 88.6 | – | – | – | –
5 | COc1cc(O)c(C(=O)CC(C)=O)c(OC)c1 | – | > 100 | > 100 | > 100 | > 100 | > 100 | > 100 µM | – | – | –
6 | COC1(OC)C2(Cl)C(Cl)=C(Cl)C1(Cl)C1c3ccc(C(C)=O)c4cccc(c34)C12 (stereo not given) | > 100 µM | > 100 | > 100 | 87.4 | – | > 100 | 20.9 µM | – | 86.6 µM | –
7 | CCCN(CCC)CCc1cc(C(C)=O)n(S(=O)(=O)c2ccc(C)cc2)c1 | > 100 µM | > 100 | > 100 | – | – | > 100 | > 100 µM | – | – | –
8 | CCNc1cc2oc(=O)cc(C(F)(F)F)c2cc1C | – | – | – | – | – | – | – | – | > 100 µM | –
9 | CCN(CCCl)CCCCCNc1c2ccccc2nc2ccc(OC)cc12 | 2.15 µM | 1.93 | – | 4.38 | 1.36 | 8.57 | 1.78 µM | – | – | –
10 | O=C1NC(=O)[C@@]2(CC[C@@H](O)C2)c2ccncc21 | – | – | – | – | – | – | – | – | > 100 µM | –
11 | O=C1C=C2C=CC3CC2(O1)C1CCCCN31 (stereo not given) | – | – | – | – | – | – | – | – | > 100 µM | GI50 (MDA-N): 16.8 µM and 18.8 µM and 36 µM
12 | C/C(=N\NC(=O)CC#N)C(CN1CCCCC1)C(c1ccccc1)c1c(O)c2ccccc2oc1=O (stereo not given) | – | – | – | – | – | – | – | – | > 100 µM | –
13 | Cc1cc2c(c3nocc13)C(=O)c1ccccc1C2=O | > 100 µM | > 100 | > 100 | > 100 | – | – | > 100 µM | > 100 | – | –
14 | Cc1c(N)nc([C@H](CC(N)=O)NC[C@H](N)C(N)=O)nc1C(=O)N[C@H](C(=O)N[C@H](C)[C@@H](O)CC(=O)N[C@H](C(=O)NC(O[C@@H]1O[C@@H](C)[C@@H](N)[C@@H](O)[C@H]1O)C(O)c1nc(-c2nc(C(=O)NCCCCN)cs2)cs1)[C@@H](C)O)[C@@H](O[C@@H]1O[C@@H](CO)[C@@H](O)[C@H](O)[C@@H]1O[C@H]1O[C@H](CO)[C@@H](O)[C@H](OC(N)=O)[C@@H]1O)c1c[nH]cn1 (stereo not given in full) | – | – | – | – | – | – | – | – | > 50 µM | –
15 | O=C(O)/C=C/c1ccc[c]([Sb](=[O])([OH])[OH])c1 | – | – | – | – | – | – | – | – | > 100 µM | GI50 (MDA-N): > 100 µM
16 | O=C(O)CNc1ccc(Cl)c(Cl)c1 | – | – | – | – | – | – | – | – | 73 µM | –
17 | Cc1cn(CCC(N)C(=O)O)c(=O)[nH]c1=O (stereo not given) | – | – | – | – | – | – | – | – | > 100 µM | –
18 | CCOc1cc(C(=O)O)c2c(ccc3ccc(OC)c(OC)c32)c1OC | – | – | – | – | – | – | – | – | > 100 µM | –
19 | CN(C)CCNC(=O)c1cccc2nc3ccc4cccnc4c3nc12 | 1.62 µM | – | 6.66 | – | – | 11.3 | 1.4 µM | 11.8 | – | –
20 | Cc1cc2c(cc1C)[n+](=O)c(C(=O)/C=C/c1ccc3c(c1)OCO3)c(C)n2[O-] | > 100 µM | – | > 100 | > 100 | 54.9 | > 100 | > 100 µM | > 91.3 | > 100 µM | –
21 | O=C1NC(=O)C(=Cc2c3ccccc3cc3ccccc23)C(=O)N1 | > 100 µM | > 100 | > 100 | > 100 | > 100 | – | > 100 µM | > 100 | – | –

Row | SMILES | TGI (M19-MEL melanoma) | TGI (LXFL 529 NSCLC) [µM] | TGI (HOP-18 NSCLC) [µM] | TGI (KM20L2 colon) [µM] | TGI (XF 498 CNS) [µM] | TGI (SNB-78 CNS) [µM] | TGI (DMS 273 small cell lung) | TGI (RXF-631 renal) [µM] | TGI (MDA-N) | also measured
22 | CC(C)=O.O=C([O-])C(F)(F)F.O=C([O-])C(F)(F)F.O=C([O-])C(F)(F)F.O=C([O-])C(F)(F)F.[Rh+2].[Rh+2] | > 100 µM | > 100 | – | > 100 | > 100 | > 100 | > 100 µM | – | – | GI50 (M19-MEL melanoma): 47.4 µM; GI50 (LXFL 529 NSCLC): 31 µM; GI50 (KM20L2 colon): > 100 µM; GI50 (XF 498 CNS): 58 µM; GI50 (SNB-78 CNS): 49.4 µM; GI50 (DMS 273 small cell lung): 94.1 µM
23 | CC(C)(CN1CCOCC1)C(=O)/C=C/c1ccc(/C=C/C(=O)C(C)(C)CN2CCOCC2)cc1 | – | 2.59 | – | 2.89 | 2.84 | 3.07 | 1.87 µM | 3.13 | – | –
24 | COc1ccc2c3c(c(C(=O)O)oc13)CCC2 | > 100 µM | > 100 | – | – | > 100 | > 100 | > 100 µM | – | – | –
25 | S=c1nc(C(c2ccccc2)c2ccccc2)[nH][nH]1 | > 100 µM | – | – | > 100 | > 100 | – | > 100 µM | > 100 | – | –
26 | Cc1cc(C)nc(NS(=O)(=O)c2ccc(Nc3c4ccccc4nc4c(C(=O)Nc5ccc(S(=O)(=O)Nc6cc(C)on6)cc5)ccc(Cl)c34)cc2)n1 | > 100 µM | 42.4 | – | 35.4 | 36.2 | > 100 | – | 64.6 | – | –
27 | CC(N)Cc1ccc(Cl)cc1 (stereo not given) | – | > 100 | > 100 | > 100 | > 100 | – | > 100 µM | – | – | –
28 | Cc1cc(Br)cc(C)c1NC(=O)C(=O)C(C(=O)c1ccncc1)C1OC(=O)c2ccccc21 (stereo not given) | – | > 100 | > 100 | > 100 | > 100 | > 100 | > 100 µM | > 100 | – | –
29 | COc1cc2c(c(O)c1C)C(=O)CC(c1ccccc1)O2 (stereo not given) | > 100 µM | > 100 | > 100 | 82.3 | – | > 100 | – | > 100 | – | –
30 | COC1CC(C)C(OC)c2cc(O)cc(c2O)NC(=O)/C(C)=C/C=C\C(C)C(OC(N)=O)/C(C)=C\C(C)C1OC (stereo not given) | 15.2 µM and 10.7 µM | 7.64 | 16.5 | – | – | 18.3 | 0.905 µM and 6.33 µM | – | 13.3 µM and 6.75 µM | TGI (P388/ADR leukemia): 18.2 µM; GI50 (M19-MEL melanoma): 0.498 µM; GI50 (KM20L2 colon): 0.21 µM
31 | Cc1c(NC(=O)CCl)c(=O)oc2c(C)c3occc(=O)c3cc12 | – | – | – | – | – | – | – | – | 31 µM | –
32 | CCC[CH2][Sn]([CH2]CCC)([CH2]CCC)[O]C(=O)C(OC(C)=O)c1ccccc1 (stereo not given) | – | – | – | 0.217 | – | – | – | – | – | GI50 (KM20L2 colon): 0.0801 µM
33 | COc1cccc2c1C(=O)c1c(O)c3c(c(O)c1C2=O)C[C@@](O)(C(C)=O)C[C@@H]3OC1CC([N+]([O-])(Cc2ccccc2)Cc2ccccc2)C(O)C(C)O1 (stereo not given in full) | 2.76 µM | 2.31 | 3.55 | 2.92 | 2.63 | – | – | 2.93 | – | –
34 | O=C(O)C(Br)C(Br)C(=O)O (stereo not given) | – | – | – | – | – | – | – | – | > 100 µM | –
35 | NCCOCn1cc(Cc2cccc(OCc3ccccc3)c2)c(=O)[nH]c1=O | – | > 100 | > 100 | > 100 | – | > 100 | > 100 µM | – | – | –
36 | O=C1OC(c2ccccc2)(c2ccccc2)c2ccc3ccc(F)cc3c21 | > 100 µM | > 100 | – | > 100 | > 100 | – | > 100 µM | > 100 | – | –
37 | Nc1ncn(C2OC(COP(=O)(O)O)C(O)C2O)c(=O)n1 (stereo not given) | – | – | – | – | – | – | – | – | > 100 µM | –
38 | O=C1C=CC(=O)C2C1Cc1ccccc1C2c1ccccc1 (stereo not given) | > 100 µM | 31.1 | > 100 | > 100 | – | – | > 100 µM | – | – | –
39 | CCN(CC)CCC(=O)OC1C(C)=CC(C)C(=O)CC(C(C)CC2CCC(O)C(OC)C2)OC(=O)C2CCCCN2C(=O)C(=O)[C@@]2(O)OC(CCC2C)CC(OC)\C(C)=C/C=C/C=C/C(C)CC(C)C(=O)C1OC (stereo not given in full) | – | – | – | – | – | – | – | – | 21.7 µM | –
40 | O=S(=O)(c1ccccc1)c1nccs1 | > 100 µM | > 100 | > 100 | > 100 | > 100 | > 100 | > 100 µM | – | – | –
41 | O=C1NC(O)c2ccccc2O1 (stereo not given) | – | – | – | – | – | – | – | – | > 100 µM | –
42 | CC(CN1CC(=O)NC(=O)C1)N1CC(=O)NC(=O)C1 (stereo not given) | 745 µM | – | > 511 | > 750 | > 690 | > 750 | > 750 µM | – | > 750 µM | TGI (P388/ADR leukemia): > 750 µM; GI50 (SN12K1 renal): 67.1 µM; TGI (SN12K1 renal): > 750 µM; TGI (P388 leukemia): > 750 µM
